In US20240360146A1, “BRUTON'S TYROSINE KINASE AND MUTANT DEGRADER, COMPOSITION AND APPLICATION THEREOF” (HANGZHOU HEALZEN THERAPEUTICS CO., LTD., priority 2021, published 2024) one finds IC50, DC50 and half-life data, which are given here for 13 compounds.

One data set has as its system Mino cells. Nature of the data set: Inhibitory activity on Mino cell proliferation (MTS). Format: cell-based. The note with it: Homo sapiens, 168 h incubation. The essentials:
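Cells seeded at 10000/well, treated with compounds from 1000 nM (4-fold, 8 points) for 72 h (OCI-LY10) or 168 h (Mino) at 37° C. MTS added for 2 h, stopped with SDS, absorbance read at 490 and 650 nm; IC50 from dose-response fit.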

The target in a further data set is T1, BTK (Homo sapiens, UniProt Q06187).
T1 construct: endogenous in cells; host or cells: Mino cells
T1 sequence (Q06187 whole entry): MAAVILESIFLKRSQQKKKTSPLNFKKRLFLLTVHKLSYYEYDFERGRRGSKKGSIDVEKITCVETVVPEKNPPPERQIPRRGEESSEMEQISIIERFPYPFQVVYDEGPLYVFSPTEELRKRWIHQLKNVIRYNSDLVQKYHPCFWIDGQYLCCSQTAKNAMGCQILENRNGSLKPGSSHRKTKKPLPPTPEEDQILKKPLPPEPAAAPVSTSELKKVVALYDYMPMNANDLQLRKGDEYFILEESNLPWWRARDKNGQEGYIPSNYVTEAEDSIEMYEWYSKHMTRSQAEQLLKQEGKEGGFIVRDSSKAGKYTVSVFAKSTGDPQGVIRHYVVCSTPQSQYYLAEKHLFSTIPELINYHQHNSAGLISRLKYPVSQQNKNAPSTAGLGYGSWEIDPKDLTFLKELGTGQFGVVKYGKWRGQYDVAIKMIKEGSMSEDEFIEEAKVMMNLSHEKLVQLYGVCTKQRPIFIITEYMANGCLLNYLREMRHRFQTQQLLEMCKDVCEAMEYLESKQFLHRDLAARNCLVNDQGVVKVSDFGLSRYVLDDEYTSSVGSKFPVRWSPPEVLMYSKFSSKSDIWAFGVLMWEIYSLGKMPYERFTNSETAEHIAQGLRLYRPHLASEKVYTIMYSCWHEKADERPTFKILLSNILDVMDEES
Nature of the data set: BTK degradation activity test in Mino cells. Format: cell-based. The note with it: 16 h incubation, Western blot or Elisa. The method in brief:
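DC50 derived by curve fitting of BTK degradation rates versus untreated control across compound concentrations. Mino cells were exposed for 16 h; BTK levels in lysates, normalised via BCA protein, measured by Western blot or ELISA.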
For orientation: Immunoblotting shows a protein as a band on a membrane.

The nature of data set [1]: Stability of compounds in human liver microsome. Format: in vitro ADME. The note with it: human liver microsomes, NADPH, 37° C., sampling 0-120 min; read-out: Human liver microsome T1/2. How it is done: Compound to be tested: the compound to be tested (1 mg) was dissolved in DMSO (10 mL) to formulate to 0.1 mg/mL.
Internal standard compound: the internal standard compound (1 mg) was dissolved in DMSO (10 mL), 10 μL was taken and diluted to 10 mL to formulate to 100 ng/mL.
NADPH solution: NADPH (2.08 mg) was dissolved in PBS (50 μL) buffer to formulate to 50 mM.
Under the condition of ice bath, 1 mg of human liver microparticles was add to PBS (1 mL) buffer, then NADPH (20 μL) was added, and incubated at 37° C. for 5 min. 10 μL of the compound to be tested was added, and then samples were taken at 0, 15, 30, 60 and 120 min respectively. 10 μL of the solution was taken with a pipette each time and added to 490 μL of the solution containing the internal standard compound. The resulting solution was vortexed and then placed on ice, and then sampling at another time point continues. All samples were centrifuged at 10,000 rpm for 10 min, and the supernatant was taken for LC/MS testing. The metabolism of the compound in liver microsomes was calculated based on the peak area.

The next data set relates to OCI-LY10 cells. Nature of the data set: Inhibitory activity on OCI-LY10 cell proliferation (MTS). Format: cell-based. The note with it: Homo sapiens, 72 h. How it is done: The anti-tumor efficacy of the compounds was tested by measuring their inhibitory effects on OCI-LY10 and Mino cell proliferation. OCI-LY10 and Mino cells were cultured in RPMI-1640 medium containing 10% fetal calf serum. OCI-LY10 and Mino cells were digested, inoculated in a 96-well plate at a cell concentration of 10000 cells/well, and incubated overnight at 37° C., 5% CO2. Compounds of different concentrations (1000 nM, 4-fold dilution, 8 points) were added to the 96-well plate and incubated for 72 h (LY10) or 168 h (Mino) at 37° C. and 5% CO2, and then 20 uL of MTS was added to each well. After incubation for 2 h, 25 μl of 10% SDS was added to each well to terminate the reaction. The absorbance at 490 nm and 650 nm were measured with a microplate reader. IC50 was calculated using GraphPad Prism 5.0.

Consider `CN1CCN([C@@H]2CCCN(c3nnc(C(N)=O)c(Nc4ccc(N5CCN(CC6CCN(c7ccc8c(c7)C(=O)N(C7CCC(=O)NC7=O)C8=O)CC6)CC5)c(F)c4)n3)C2)C1=O` (stereo partly drawn) [Compound 134, 5-((4-(4-((1-(2-(2,6-dioxopiperidin-3-yl)-1,3-dioxoisoindolin-5-yl)piperidin-4-yl)methyl)piperazin-1-yl)-3-fluorophenyl)amino)-3-((R)-3-(3-methyl-2-oxoimidazolin-1-yl)piperidin-1-yl)-1,2,4-triazin-6-carboxamide], for which the IC50 (as a rule, the concentration that inhibits the measured activity by half) in the data set on Mino cells was 1.72 nM. The DC50 – broadly, the concentration giving 50% degradation – on BTK is below 1 nM. The half-life at 0.97 µg/mL in data set [1] is above 30 min.
`CN1CCN([C@@H]2CCCN(c3nnc(C(N)=O)c(Nc4ccc(N5CCN(CC6CCN(c7ccc(C(=O)NC8CCC(=O)NC8=O)c8c7OCO8)CC6)CC5)c(F)c4)n3)C2)C1=O` (stereo partly shown) [Compound 177]: inhibition in the data set on Mino cells was half-maximal at 2.99 nM (IC50). Further, the DC50 on BTK was below 1 nM. Besides, the half-life at 0.97 µg/mL in data set [1] is above 30 min.
`CN1CCN([C@@H]2CCCN(c3nnc(C(N)=O)c(Nc4ccc(N5CCN(CC6CCN(c7ccc(N8CCC(=O)NC8=O)c(F)c7)CC6)CC5)c(F)c4)n3)C2)C1=O` [Compound 184, (R)-5-((4-(4-((1-(4-(2,4-dioxotetrahydropyrimidin-1(2H)-yl)-3-fluorophenyl)piperidin-4-yl)methyl)piperazin-1-yl)-3-fluorophenyl)amino)-3-(3-(3-methyl-2-oxoimidazolidin-1-yl)piperidin-1-yl)-1,2,4-triazin-6-carboxamide]: on BTK, the DC50 was below 1 nM. The half-life at 0.97 µg/mL in data set [1] is above 30 min. In the data set with OCI-LY10 cells, 1.56 nM corresponded to half-maximal inhibition (IC50).
At BTK, `CN1CCN([C@@H]2CCCN(c3nnc(C(N)=O)c(Nc4ccc(N5CCN(CC6CCN(c7ccc(C(=O)NC8CCC(=O)NC8=O)cn7)C6)CC5)c(F)c4)n3)C2)C1=O` (stereo partly drawn) [Compound 174, 5-((4-(4-((1-(5-((2,6-dioxopiperidin-3-yl)carbamoyl)pyridin-2-yl)pyrrolidin-3-yl)methyl)piperazin-1-yl)-3-fluorophenyl)amino)-3-((R)-3-(3-methyl-2-oxoimidazolidin-1-yl)piperidin-1-yl)-1,2,4-triazin-6-carboxamide] showed a DC50 below 1 nM. In addition, in data set [1], the half-life at 0.97 µg/mL is above 30 min. This compound also returned an IC50 in the data set with OCI-LY10 cells of 1.03 nM.
The corresponding values for `CN1CCN([C@@H]2CCCN(c3nnc(C(N)=O)c(Nc4ccc(N5CCN(CC6CCN(c7ccc8c(=O)n(C9CCC(=O)NC9=O)ccc8c7)CC6)CC5)c(F)c4)n3)C2)C1=O` (stereo partly drawn) [Compound 232, 5-((4-(4-((1-(2-(2,6-dioxopiperidin-3-yl)-1-oxo-1,2-dihydroisoquinolin-6-yl)piperidin-4-yl)methyl)piperazin-1-yl)-3-fluorophenyl)amino)-3-((R)-3-(3-methyl-2-oxoimidazolidin-1-yl)piperidin-1-yl)-1,2,4-triazin-6-carboxamide] are below 1 nM, above 30 min and 0.83 nM.
For `CN1CCN([C@@H]2CCCN(c3nnc(C(N)=O)c(Nc4ccc(N5CCN(CC6CCN(c7ccc8c(c7)n(C)c(=O)n8C7CCC(=O)NC7=O)C6)CC5)c(F)c4)n3)C2)C1=O` (stereo partly drawn) [Compound 218, 5-((4-(4-((1-(1-(2,6-dioxopiperidin-3-yl)-3-methyl-2-oxo-2,3-dihydro-H-benzo[d]imidazol-5-yl)pyrrolidin-3-yl)methyl)piperazin-1-yl)-3-fluorophenyl)amino)-3-((R)-3-(3-methyl-2-oxoimidazolidin-1-yl)piperidin-1-yl)-1,2,4-triazin-6-carboxamide], on BTK, the DC50 is below 1 nM. Besides, in data set [1], the half-life at 0.97 µg/mL was above 30 min.
On to `CN1CCN([C@@H]2CCCN(c3nnc(C(N)=O)c(Nc4ccc(N5CCN(CC6CCN(c7ccc8c9c([nH]c8c7)C(=O)N(C7CCC(=O)NC7=O)C9)CC6)CC5)c(F)c4)n3)C2)C1=O` (stereo partly drawn) [Compound 222, 5-((4-(4-((1-(2-(2,6-dioxopiperidin-3-yl)-3-oxo-1,2,3,4-tetrahydropyrrolo[3,4-b]indol-6-yl)piperidin-4-yl)methyl)piperazin-1-yl)-3-fluorophenyl)amino)-3-((R)-3-(3-methyl-2-oxoimidazolidin-1-yl)piperidin-1-yl)-1,2,4-triazin-6-carboxamide], for which, in the data set with Mino cells, the IC50 stood at 4.15 nM. The DC50 at BTK was below 1 nM. Further, the half-life at 0.97 µg/mL in data set [1] was above 30 min.
As for `CN1CCN([C@@H]2CCCN(c3nnc(C(N)=O)c(Nc4ccc(N5CCN(CC6CCN(c7ccc(C(=O)NC8CCC(=O)NC8=O)nc7)C6)CC5)c(F)c4)n3)C2)C1=O` (stereo partly shown) [Compound 173], the 50% degradation concentration (DC50) on BTK was below 1 nM. The half-life at 0.97 µg/mL in data set [1] is above 30 min.
At BTK, `CN1CCN([C@@H]2CCCN(c3nnc(C(N)=O)c(Nc4ccc(N5CCN(CC6CCN(c7ccc(NC8CCC(=O)NC8=O)c(F)c7)CC6)CC5)c(F)c4)n3)C2)C1=O` (stereo partly drawn) [Compound 205, 5-((4-(4-((1-(4-((2,6-dioxopiperidin-3-yl)amino)-3-fluorophenyl)piperidin-4-yl)methyl)piperazin-1-yl)-3-fluorophenyl)amino)-3-((R)-3-(3-methyl-2-oxoimidazolidin-1-yl)piperidin-1-yl)-1,2,4-triazin-6-carboxamide] came in with a DC50 below 1 nM. Besides, in data set [1], the half-life at 0.97 µg/mL is above 30 min. The compound further had a half-inhibitory concentration (IC50) with OCI-LY10 cells of 0.57 nM.
Take `CN1CCN([C@@H]2CCCN(c3nnc(C(N)=O)c(Nc4ccc(N5CCN(CC6CCN(c7ccc(C(=O)NC8CCC(=O)NC8=O)c8[nH]cnc78)CC6)CC5)c(F)c4)n3)C2)C1=O` (stereo partly drawn) [Compound 179, 4-(4-((4-(4-((6-carbamoyl-3-((R)-3-(3-methyl-2-oxoimidazolidin-1-yl)piperidin-1-yl)-1,2,4-triazin-5-yl)amino)-2-fluorophenyl)piperazin-1-yl)methyl)piperidin-1-yl)-N-(2,6-dioxopiperidin-3-yl)-1Hbenzimidazol-7-carboxamide]: in the data set with Mino cells, the half-inhibitory concentration (IC50) is 1.47 nM. For the same compound, the DC50 on BTK was below 1 nM. Besides, the half-life at 0.97 µg/mL in data set [1] is above 30 min.
`COc1cc(N2CCC(CN3CCN(c4ccc(Nc5nc(N6CCC[C@@H](N7CCN(C)C7=O)C6)nnc5C(N)=O)cc4F)CC3)CC2)ccc1C(=O)NC1CCC(=O)NC1=O` (stereo partly drawn) [Compound 181, 5-((4-(4-((1-(4-((2,6-dioxopiperidin-3-yl)carbamoyl)-3-methoxyphenyl)piperidin-4-yl)methyl)piperazin-1-yl)-3-fluorophenyl)amino)-3-((R)-3-(3-methyl-2-oxoimidazolidin-1-yl)piperidin-1-yl)-1,2,4-triazin-6-carboxamide] registered a DC50 at BTK below 1 nM. Further, the half-life at 0.97 µg/mL in data set [1] was above 30 min. Further, the midpoint of inhibition with OCI-LY10 cells, the IC50, lay at 0.78 nM.
For the compound `CN1CCN([C@@H]2CCCN(c3nnc(C(N)=O)c(Nc4ccc(N5CCN(CC6CCN(c7ccc(NC8CCC(=O)NC8=O)nc7)CC6)CC5)c(F)c4)n3)C2)C1=O` (stereo partly drawn) [Compound 202, 5-((4-(4-((1-(6-((2,6-dioxopiperidin-3-yl)amino)pyridin-3-yl)piperidin-4-yl)methyl)piperazin-1-yl)-3-fluorophenyl)amino)-3-((R)-3-(3-methyl-2-oxoimidazolidin-1-yl)piperidin-1-yl)-1,2,4-triazin-6-carboxamide], the half-maximal inhibitory concentration (IC50) amounted to 6.83 nM with Mino cells and 1.05 nM in the data set on OCI-LY10 cells. This compound also showed a DC50 at BTK below 1 nM.
Regarding `Cc1ccc(C(=O)N2CCC(CN3CCN(c4ccc(Nc5nc(N6CCC[C@@H](N7CCN(C)C7=O)C6)nnc5C(N)=O)cc4F)CC3)C2)cc1N1CCC(=O)NC1=O` (stereo partly drawn) [Compound 150, 5-((4-(4-((1-(3-(2,4-dioxotetrahydropyrimidin-1(2H)-yl)-4-methylbenzoyl)pyrrolidin-3-yl)methyl)piperazin-1-yl)-3-fluorophenyl)amino)-3-((R)-3-(3-methyl-2-oxoimidazolin-1-yl)piperidin-1-yl)-1,2,4-triazin-6-carboxamide], in the data set with Mino cells, half-maximal inhibition (IC50) required 1.91 nM. At BTK, this compound displayed a DC50 below 1 nM. The half-life at 0.97 µg/mL in data set [1] is above 30 min.
